The results in this text go back to ChEMBL document CHEMBL3132768, “Design, synthesis and biological evaluation of TAR and cTAR binders as HIV-1 nucleocapsid inhibitors” (Medchemcomm, 2013).

Calls of active or inactive are those of the source. The rule behind the calls is not given here.

The subject of data set [1] is Nucleic Acid. In words: Binding affinity to HIV1 TAR RNA assessed as change in melting temperature by […]. Conditions: Human immunodeficiency virus 1. It counts as nucleic-acid assay.
Data set [2] deals with Human immunodeficiency virus 1. The data set can be described thus: Binding affinity to HIV1 cTAR DNA assessed as change in melting temperature by […].
Data set [3] deals with Nucleic Acid. In words: Binding affinity to HIV1 TAR/cTAR RNA/DNA duplex assessed as change in melting temperature by […]. It counts as nucleic-acid assay. The conditions noted are these: Human immunodeficiency virus 1.
Data set [4] is described as follows: Inhibition of NC-induced HIV1 TAR/cTAR annealing assessed as change in melting temperature preincubated for 15 mins before NC addition measured after 15 mins by gel electrophoresis. The arrangement: species or system Human immunodeficiency virus 1.
The nature of data set [5]: Inhibition of NC-induced HIV1 cTAR destabilization assessed as change in melting temperature by fluorescence quenching assay. The arrangement: species or system Human immunodeficiency virus 1.
In data set [6] the test system is Jurkat. In words: Cytotoxicity against human Jurkat cells up to 100 uM after 72 hrs by MTT assay. It counts as cell-based. (In general: Tetrazolium assays rely on reduction of a dye to a coloured formazan, in cell work by metabolically active cells.)
The nature of data set [7]: Inhibition of NC-induced HIV1 TAR destabilization assessed as change in melting temperature by fluorescence quenching assay. The arrangement: species or system Human immunodeficiency virus 1.
A short description of data set [8]: Octanol-water partition co-efficient, log P of the compound by shake flask method. Format: physicochemical.
For data set [9], the system named is Human immunodeficiency virus 1. The data set can be described thus: Antiviral activity against HIV1 infected in human Jurkat cells assessed as inhibition of viral replication after 3 to 4 days. It counts as functional, organism-based.
Data set [10] relates to Jurkat. The data set can be described thus: Drug uptake in human Jurkat cells at 100 uM after 3 hrs by spectrophotometry. It counts as ADME, cell-based.
Data set [11] relates to Human immunodeficiency virus 1. In words: Antiviral activity against HIV1 infected in human Jurkat cells assessed as inhibition of viral replication by CAT gene-based transcomplementation assay. Format: functional, organism-based.

Broadly, the ΔTm is the shift of the melting midpoint relative to a reference. As a reminder, the IC50 is the concentration that inhibits the measured activity by half. For orientation: logP means a log measure of how a compound divides between an organic and an aqueous phase. A low value points to a more hydrophilic compound. In the case of `NCCC(=O)NCCC(=O)Nc1ccc2c(c1)C(=O)c1ccc(NC(=O)CCNC(=O)CCN)cc1C2=O.O=C(O)C(F)(F)F.O=C(O)C(F)(F)F`, the ΔTm in the data set with Nucleic Acid [1] was 2.79 °C; in data set [2], 2.14 °C; in the data set with Nucleic Acid [3], 1.12 °C. Moreover, the results for the IC50 in data set [4], in data set [5] and in [7] were 76.8 µM, 11.8 µM and 10 µM, respectively. Further, in the data set on Jurkat [6], the Activity entry is “Non-toxic”. The same compound returned a lipophilicity (logP) in data set [8] of -2.98. Besides, the result in data set [9] was inactive.

As for `O=C(CCNC(=O)C1CCNCC1)Nc1ccc2c(c1)C(=O)c1ccc(NC(=O)CCNC(=O)C3CCNCC3)cc1C2=O.O=C(O)C(F)(F)F.O=C(O)C(F)(F)F`, the ΔTm stood at 1.49 °C with Nucleic Acid [1], 1.11 °C in data set [2] and 0.65 °C with Nucleic Acid [3]. Also, the results for the IC50 in data set [4], in data set [5] and in data set [7] were 95.8 µM, 36.3 µM and 42.9 µM, respectively. The Activity entry with Jurkat [6] was “Non-toxic”. The compound further returned a logP in [8] of -2.91. Moreover, the outcome in [9] was inactive.

`NCC(N)C(=O)NCCC(=O)Nc1ccc2c(c1)C(=O)c1ccc(NC(=O)CCNC(=O)C(N)CN)cc1C2=O.O=C(O)C(F)(F)F.O=C(O)C(F)(F)F.O=C(O)C(F)(F)F.O=C(O)C(F)(F)F` (stereo unspecified): the shift in melting temperature (ΔTm) with Nucleic Acid [1] worked out at 2.38 °C; in data set [2] it was 1.92 °C; in the data set with Nucleic Acid [3], 0.28 °C. Also, the half-inhibitory concentration (IC50) stood at 22.8 µM in data set [5] and 21.4 µM in data set [7]. The Activity entry in the data set on Jurkat [6] was “Non-toxic”. The logP in data set [8] was -2.56. Moreover, the outcome in data set [9] was inactive.

In the case of `Nc1ccc(CC(N)C(=O)NCCC(=O)Nc2ccc3c(c2)C(=O)c2ccc(NC(=O)CCNC(=O)C(N)Cc4ccc(N)cc4)cc2C3=O)cc1.O=C(O)C(F)(F)F.O=C(O)C(F)(F)F.O=C(O)C(F)(F)F.O=C(O)C(F)(F)F` (stereo unspecified), the 50% inhibitory concentration (IC50) in data set [4] stood at 42.3 µM. In the data set on Jurkat [6], the Activity entry is on record as “Non-toxic”. In data set [8], this compound yielded a logP of -2.51. The result in data set [9] was inactive.

For the compound `NCCCCC(N)C(=O)NCCC(=O)Nc1ccc2c(c1)C(=O)c1ccc(NC(=O)CCNC(=O)C(N)CCCCN)cc1C2=O` (stereo unspecified), the ΔTm in the data set on Nucleic Acid [1] stood at 2.88 °C; in [2] it was 2.14 °C; in the data set on Nucleic Acid [3] it was 1.12 °C. Further, the Drug uptake entry in the data set with Jurkat [10] is reported as “Not Active”. For the same compound, the values for the half-inhibitory concentration (IC50) in data set [4], in [5] and in data set [7] were 44.5 µM, 3.84 µM and 3.71 µM, respectively.

In the case of `NCCC(N)C(=O)NCCC(=O)Nc1ccc2c(c1)C(=O)c1ccc(NC(=O)CCNC(=O)C(N)CCN)cc1C2=O.O=C(O)C(F)(F)F.O=C(O)C(F)(F)F.O=C(O)C(F)(F)F.O=C(O)C(F)(F)F` (stereo unspecified), the ΔTm came to 8.95 °C with Nucleic Acid [1], 10.5 °C in data set [2] and 1.77 °C in the data set on Nucleic Acid [3]. Also, the half-inhibitory concentration (IC50) in data set [4] was 44.1 µM; in data set [5], 7.1 µM; in data set [7], 6.3 µM. The Activity entry in the data set on Jurkat [6] is “Non-toxic”. For the same compound, the logP in data set [8] is -2.55. In data set [9], the outcome was inactive.

Regarding `NCC1CCC(C(=O)NCCC(=O)Nc2ccc3c(c2)C(=O)c2ccc(NC(=O)CCNC(=O)C4CCC(CN)CC4)cc2C3=O)CC1.O=C(O)C(F)(F)F.O=C(O)C(F)(F)F` (stereo unspecified), the figures for the ΔTm (in the data set with Nucleic Acid [1]; in data set [2]; with Nucleic Acid [3]) were 0.97 °C, 1.86 °C and 0.84 °C, respectively. The IC50 is 13.7 µM in [5] and 17.6 µM in [7]. For the same compound, the Activity result in the data set with Jurkat [6] is “Non-toxic”. In data set [8], this compound displayed a log partition coefficient (logP) of -2.31. Besides, in data set [9], the outcome was inactive.

Take `NCCCC(N)C(=O)NCCC(=O)Nc1ccc2c(c1)C(=O)c1ccc(NC(=O)CCNC(=O)C(N)CCCN)cc1C2=O.O=C(O)C(F)(F)F.O=C(O)C(F)(F)F.O=C(O)C(F)(F)F.O=C(O)C(F)(F)F` (stereo unspecified): the thermal shift (ΔTm) in the data set on Nucleic Acid [1] was found to be 16.2 °C; in data set [2], 13.8 °C; in the data set on Nucleic Acid [3], 3.1 °C. In addition, the IC50 in data set [4] amounted to 21.9 µM; in data set [5], 2.04 µM; in data set [7], 3.2 µM. Besides, the Activity entry with Jurkat [6] is reported as “Non-toxic”. For the same compound, the outcome in data set [11] was inactive. In addition, in data set [8], the logP is -2.51.

For `NC1(C(=O)NCCC(=O)Nc2ccc3c(c2)C(=O)c2ccc(NC(=O)CCNC(=O)C4(N)CCNCC4)cc2C3=O)CCNCC1.O=C(O)C(F)(F)F.O=C(O)C(F)(F)F.O=C(O)C(F)(F)F.O=C(O)C(F)(F)F`, the results for the ΔTm (in the data set with Nucleic Acid [1]; in data set [2]; with Nucleic Acid [3]) were 2.23 °C, 2.14 °C and 1.12 °C, respectively. Also, the IC50 turned out to be 15.4 µM in data set [5] and 13.8 µM in data set [7]. For the same compound, the Activity entry with Jurkat [6] is “Non-toxic”. In [8], the logP is -2.91. Moreover, in data set [9], the outcome was inactive.
